Results: article PMC11087268, “A folate inhibitor exploits metabolic differences in Pseudomonas aeruginosa for narrow-spectrum targeting” (Nature Microbiology, 2024)
Converted amounts (≈) assume the structure as drawn.

What was measured:
P. aeruginosa PA14 = assay: Colony-forming units counting after antibiotic treatment; assay type: cell-based, Pseudomonas aeruginosa; conditions: for PA14 CFU/mL, Mean: 2× MIC (fluorofolin 6.2, TMP 250, polymixin B 4 μg ml^−1)
Description: P. aeruginosa PA14 overnight cultures were diluted 1:100 and grown to exponential phase (OD600 = 0.4–0.6). Cultures were diluted 1:10 and treated with antibiotic. At each time point, 150 μl of culture was removed, serial diluted 1:10 six times and plated onto LB agar plates. Plates were grown overnight at 37 °C, after which visible colonies were counted. C.f.u.s ml^−1 are reported from dilutions in which ~10–100 single colonies were visible.

[1] = test system: HK-2 (human kidney epithelial); assay: Mammalian cell cytotoxicity, HK-2; assay type: cell-based; conditions: 72 h, CyQUANT, read-out: IC50 Fluorofolin
Description: HK-2 (500 cells per well) (ATCC CRL-2190), HLF (500 cells per well) (Cell Applications 506K-05a), WI-38 (500 cells per well) (ATCC CCL-75) or PBMC (5,000 cells per well) (TPCS PB010C) cells were seeded in white opaque 384-well plates. After 24 h, DMSO or compounds were added in 3-fold dilutions and cells incubated for 72 h. For PBMC, CellTiter-Glo reagent was added in equal volume and incubated for 30 min, after which luminescence was read. For other cell types, CyQUANT detection reagent was added in equal volume and cells incubated for 1 h, after which fluorescence was read with standard green filter set […]. Cell toxicity was evaluated by Pharmaron.

E. faecalis = assay: Growth with or without TMI supplementation and fluorofolin, E. faecalis; assay type: cell-based, Enterococcus faecalis; conditions: fluorofolin 2X MIC
Description: Where listed, growth media were prepared according manufacturer recommendations: LB broth and LB broth supplemented with 0.3 mM thymine (BD Biosciences 244610, Alfa Aesar A15879), 0.3 mM methionine (Sigma-Aldrich M9625), 0.3 mM inosine (EMD Millipore 4060), cation-adjusted Mueller–Hinton II broth (CAMHB) (BD 212322) or 0.3 mM thymidine (Sigma-Aldrich T1895), Gutnick minimal media (1.0 g l^−1 K2SO4, 13.5 g l^−1 K2HPO4, 4.7 g l^−1 KH2PO4, 0.1 g l^−1 MgSO4·7H2O, 10 mM NH4Cl as a nitrogen source and 0.4% w/v glucose as a carbon source)[65].
Extended Data Fig. 3 TMI supplementation can also rescue other species from fluorofolin DHFR inhibition. […] (f) P. aeruginosa PA14 or E. coli lptd4213 treated with fluorofolin 50 μg/mL in the presence or absence of 0.3 mM thymidine. (g) E. coli lptd4213 treated with fluorofolin 50 μg/mL and SMX (78.1 μg/mL) in the presence or absence of 0.3 mM thymidine or 0.3 mM TMI supplementation, Curves represent average optical at 600 nm (OD600) of 2 biological replicates. Means are shown. Source data

Question: Which results are given for `Nc1nc(N)c2c(ccc3c2ccn3Cc2ccnc(F)c2)n1` [fluorofolin]?
Answer: type of antibacterial activity (P. aeruginosa PA14; PA14, rich media): bacteriostatic; PA14 CFU/mL, Mean (P. aeruginosa PA14; Time 0 h): 197000 CFU/mL; PA14 CFU/mL, Mean (P. aeruginosa PA14; Time 1 h): 211000 CFU/mL; PA14 CFU/mL, Mean (P. aeruginosa PA14; Time 2 h): 171000 CFU/mL; PA14 CFU/mL, Mean (P. aeruginosa PA14; Time 4 h): 206667 CFU/mL; IC50 [1]: 51.7 µg/mL (≈ 168 µM); rescue of growth inhibition by TMI supplementation (E. faecalis): could also be rescued from fluorofolin growth inhibition by TMI supplementation
